Measured values published in article PMC6842543, “Antiparasitic effect of synthetic aromathecins on Leishmania infantum” (BMC Veterinary Research, 2019).
Entries after “also recorded” stand apart in the source; their conditions may differ. Where two headings read alike, the source gives them in different places.

How the values were obtained:
recombinant LTopIB = assay: TopIB relaxation activity assay (supercoiled pBluescript-SK plasmid, agarose gel with ethidium bromide); type: biochemical, Leishmania; settings: for Inhibition of LTopIB relaxation activity (in words): 0.01, 0.1, 1, 10 and 100 μM, 26 °C, 4 min; for Concentration at which partial inhibition of LTopIB started: not concentration dependent; for Total inhibition of LTopIB: only at high concentration (100 μM)
Description: In addition to the antileishmanial effect of these compounds, their activity as LTopIB inhibitors was analyzed in vitro (Fig. 2). Recombinant LTopIB was produced in a TopIB-defective yeast platform, and purified by standard chromatographic protocols. The effect of aromathecins (comp. 1 to 10) on LTopIB was addressed by measuring the relaxation of negatively supercoiled pBluescript-SK DNA plasmid in the presence of different concentrations of these molecules. In order to separate the nicked DNA generated by the cleavage-complex stabilization from the relaxed topoisomers, gels were run in the presence of ethidium bromide.
Fig. 2 Inhibition of LTopIB relaxation activity of negatively supercoiled pBluescript SK (−) plasmid (pSK) mediated by different aromathecins concentrations (0.01, 0.1, 1, 10 and 100 μM). The control reaction contained 1% DMSO. DNA was separated by gel electrophoresis in 1% agarose containing 0.1 μg/mL ethidium bromide. Gels were visualized with UV illumination. Key: R = relaxed DNA; Sc = supercoiled DNA; N = nicked DNA
Expression and purification of LTopIB were carried out according to a previously standardized protocol. LTopIB was purified from yeast strain EKY3 deficient in TopIB activity [MATα, ura3–52, his3Δ200, leu2Δ1, trp1Δ63, top1Δ:TRP1], transfected with the pESC-URA plasmid containing both subunits of LTopIB. Cells were grown in yeast synthetic drop-out medium without uracil (Sigma) supplemented with 2% raffinose (w/v) to OD600: 0.8–1 and induced for 10 h with 2% galactose (w/v). Yeast were harvested, washed with cold TEEG buffer (50 mM Tris-HCl pH 7.4, 1 mM EDTA, 1 mM EGTA, 10% glycerol) and resuspended to their lysis in 15 mL of 1 x TEEG buffer supplemented with 0.2 M KCl and a protease inhibitors cocktail (Thermo Scientific). Protein extract obtained was loaded on a 5 mL P-11 phosphocellulose column (Whatman International Ltd. England). LTopIB protein was eluted at 4 °C with a discontinuous gradient of KCl (0.2, 0.4, 0.6 M) in TEEG buffer.
The effect of aromathecins on recombinant LTopIB was determined by measuring the relaxation of negatively supercoiled pBluescript-SK DNA plasmid (pSK). Thus, 20 μL of reaction mixture (0.5 μg pSK; 10 mM Tris-HCl pH 7.5; 5 mM MgCl2; 0.1 mM EDTA; 15 μg/mL bovine serum albumin) along with 0.01, 0.1, 1, 10 and 100 μM of the different aromathecins were incubated at 26 °C during 4 min. The control reaction performed without aromathecins contained 1% DMSO. Reactions were stopped by adding 1% SDS (final concentration), digested with 1 mg/mL proteinase K at 37 °C during 1 h and extracted with phenol/chloroform. DNA was separated by gel electrophoresis in 1% agarose containing 0.1 μg/mL ethidium bromide in 0.1 M Tris borate EDTA buffer (pH 8.0) at 4 V/cm for 16 h. Gels were visualized with UV illumination.

[1] = test system: L. infantum promastigotes; assay: In vitro iRFP L. infantum promastigotes viability assay (infrared fluorescence); type: cell-based, Leishmania infantum; settings: Leishmania infantum; iRFP-L. infantum promastigotes, 72 h, 26 °C, fluorescence at 708 nm; average of three experiments by duplicate; read-out: EC50 L. infantum promastigotes
Description: (§1) Two series of aromathecins (Table 1) have been tested against both stages of L. infantum, free-living promastigotes and intracellular amastigotes harbored in mouse splenic cells. Experiments were carried out using a genetically modified L. infantum strain that constitutively produces the iRFP protein. This makes it possible to evaluate the viability of parasites measuring the fluorescence emitted at 708 nm.
The antiparasitic activity of the compounds was assessed on the genetically modified iRFP L. infantum strain, which constitutively produces the infrared fluorescent protein (iRFP) when cells are viable. iRFP L. infantum was grown at 26 °C in M-199 medium (Gibco) supplemented with 25 mM HEPES pH 7.2, 0.1 mM adenine, 0.0005% (w/v) hemin, 2 μg/mL biopterin, 0.0001% (w/v) biotin, 10% (v/v) heat-inactivated fetal bovine serum (FBS) and an antibiotic cocktail comprising 50 U/mL penicillin and 50 μg/mL streptomycin.
(§2) The viability of cultured parasites in the presence of different concentrations of aromathecins was determined by measuring the reduction of infrared fluorescence emitted by free-living promastigotes/amastigotes with respect to negative controls of each form of the parasite treated with DMSO (up to 0.1% final concentration) as a vehicle. […] After 72 h incubation at 26 °C, the infrared fluorescence emitted at 708 nm by viable promastigotes/amastigotes was measured in an Odyssey (Li-Cor) infrared imaging system. Similarly, the cytotoxic effect (CC50) of aromathecins on uninfected splenic explants from BALB/c mice (cells that naturally harbor the amastigote stage) was measured by the Alamar Blue (Invitrogen) assay. The selectivity index (SI) was determined as the relationship between the CC50 value and the EC50 value for amastigotes. CC50 and EC50 were calculated by nonlinear analysis using the Sigma-Plot 10.0 statistical package. The aromathecins were dissolved in DMSO and stored at − 20 °C before their use as fresh aliquots.

L. infantum amastigotes = assay: Ex vivo murine splenic explant culture with intramacrophagic iRFP L. infantum amastigotes; type: cell-based, Leishmania infantum; settings: for SI: Selectivity Index = CC50/EC50 (amastigotes): CC50 murine splenocytes / EC50 amastigotes; for EC50: Leishmania infantum, splenic-infecting amastigotes, ex vivo explants from infected BALB/c mice, 72 h, read-out: EC50 L. infantum amastigotes
Description: as §1
Primary splenocyte cultures containing intramacrophagic amastigotes were obtained from dissected spleens of female BALB/c mice infected intraperitoneally with 1.5 × 10^9 metacyclic iRFP L. infantum promastigotes, 5 weeks before their sacrifice. Mice were obtained commercially (Janvier-Labs). Animals were housed in specific-pathogen free facilities and they were euthanized by cervical dislocation without anesthesia. These protocols were approved by the Animal Care Committee of University of Leon (project license SAF2017–83575-R), which complies with European Union Legislation (2010/63/UE) and Spanish Act (RD 53/2013).
(§3) The spleens were washed with cold phosphate-buffered saline (PBS), cut in small pieces and incubated for 20 min with 5 mL of 2 mg/mL collagenase D (Sigma) prepared in buffer (10 mM HEPES, pH 7.4, 150 mM NaCl, 5 mM KCl, 1 mM MgCl2 and 1.8 mM CaCl2). After that, the cell suspension obtained was passed through a 100 μm cell strainer, harvested by centrifugation (500×g for 7 min at 4 °C), washed twice with PBS, and cultured at 37 °C under 5% CO2 atmosphere in RPMI medium (Gibco) supplemented with 10 mM HEPES, 1 mM sodium pyruvate, 1xRPMI 1640 vitamin mix, 10% (v/v) FBS, 50 U/mL penicillin and 50 μg/mL streptomycin (Calvo-Álvarez et al., 2015).
as §2

[2] = Cytotoxicity on uninfected splenic explants (Alamar Blue); type: cell-based, BALB/c mice; settings: mouse, uninfected splenic explants from BALB/c mice, Alamar Blue
Description: as §3, §2

L. infantum WT strain = assay: Susceptibility of WT strain promastigotes; type: cell-based, Leishmania infantum
Description: (§4) In order to evaluate if aromathecins would share the transporter involved in CPT resistance, one of the major problems related to the loss of effectiveness of CPT derivatives, a CPT-resistant strain was generated. The CPT-resistant strain used was generated by the exposure of L. infantum promastigotes to increasing concentrations of CPT, from 0.1 to 20 μM (CPT-20, from now on). […] Therefore, it is very likely that the resistance mechanism of CPT-20 is related to the overexpression of the ABCG6 transporter previously described as the drug-efflux pump involved in the CPT resistance mechanism. The CPT-20 strain was susceptible to the aromathecins assayed in this work (2, 5 and 10 were not assayed due to their poor effect against iRFP L. infantum promastigotes), showing very similar EC50 values to those obtained with iRFP L. infantum.

[3] = test system: CPT-20 (CPT-resistant L. infantum promastigotes); assay: Susceptibility of CPT-resistant strain CPT-20 promastigotes; type: cell-based, Leishmania infantum; settings: read-out: EC50 in CPT-20 strain
Description: as §4
The CPT resistant strain used in this work was generated exposing L. infantum promastigotes to increased concentrations of CPT, from 0.1 to the solubility limit of the compound, 20 μM in the case of CPT. Parasites were grown at 26 °C in M199 medium supplemented as described previously, each culture being inoculated at an initial density of 10^6 cells/mL. The promastigotes cultured in liquid medium in the presence of 20 μM CPT, were plated on semisolid M199 medium containing 20 μM CTP in order to select a single colony.

[4] = uninfected splenic explants (murine splenocytes)
[5] = read-out: CC50 Murine Splenocytes

| Structure (SMILES) | Inhibition of LTopIB relaxation activity (in words) (recombinant LTopIB) | EC50 [1] | SI: Selectivity Index = CC50/EC50 (amastigotes) (L. infantum amastigotes) | EC50 (L. infantum amastigotes) | CC50 at 72 h [2, 4] | Nicked DNA from cleavage-complex stabilization (recombinant LTopIB; gel run in the presence of ethidium bromide) | Concentration at which partial inhibition of LTopIB started (recombinant LTopIB) | CC50 at 72 h [2, 5] | Total inhibition of LTopIB (recombinant LTopIB) | EC50 (L. infantum WT strain; Leishmania infantum) | EC50 ([3]; Leishmania infantum) | EC50 (L. infantum WT strain) | EC50 ([3]; CPT-resistant L. infantum promastigotes selected up to 20 μM CPT) |
| --- | --- | --- | --- | --- | --- | --- | --- | --- | --- | --- | --- | --- | --- |
| O=c1c2ccccc2cc2n1Cc1c-2nc2cc3c(cc2c1Cn1ccnc1)OCCO3 [Compound 10] | did not have any inhibitory effect; also recorded: do not have LTopIB inhibitory activity | > 20 µM | 9.3 | 0.58 ± 0.05 µM | 5.56 ± 1.13 µM |  |  |  |  |  |  |  |  |
| CN(C)Cc1c2c(nc3cc4c(cc13)OCCO4)-c1cc3ccccc3c(=O)n1C2 [Compound 8] |  | 5.09 ± 0.82 µM | 10.6 | 0.35 ± 0.03 µM | 3.72 ± 0.76 µM | weak band of nicked DNA; also recorded: nick DNA from cleavage-complex stabilization |  |  |  |  |  |  |  |
| O=c1c2ccccc2cc2n1Cc1c-2nc2ccccc2c1CCCn1ccnc1 [Compound 5] | partial inhibition | > 20 µM | 5.2 | 0.44 ± 0.03 µM |  |  | 0.01 µM | 2.31 ± 0.72 µM |  |  |  |  |  |
| NCCNCc1c2c(nc3ccccc13)-c1cc3ccccc3c(=O)n1C2 [Compound 2] |  | > 20 µM |  | 0.81 ± 0.05 µM | 2.17 ± 0.27 µM |  |  |  |  |  |  |  |  |
| CN(C)CCCc1c2c(nc3cc4c(cc13)OCCO4)-c1cc3ccccc3c(=O)n1C2 [Compound 9] | only happed at a high concentration | 3.03 ± 0.45 µM | 8.0 | 0.37 ± 1.06 µM | 3.04 ± 1.06 µM |  |  |  | total inhibition |  |  |  |  |
| NCCCc1c2c(nc3cc4c(cc13)OCCO4)-c1cc3ccccc3c(=O)n1C2 [Compound 7] | partial inhibition | 13.3 ± 2.74 µM |  | 1.11 ± 0.08 µM |  |  | 0.01 µM | 0.31 ± 0.04 µM | total inhibition |  |  |  |  |
| NCCCCNCc1c2c(nc3ccccc13)-c1cc3ccccc3c(=O)n1C2 [Compound 3] | partial inhibition | 3.71 ± 0.45 µM | 2.5 | 1.01 ± 0.13 µM | 2.53 ± 0.14 µM |  | 0.01 µM |  | total inhibition |  |  |  |  |
| CC[C@@]1(O)C(=O)OCc2c1cc1n(c2=O)Cc2cc3c(CN(C)C)c(O)ccc3nc2-1 [topotecan] |  |  |  |  |  |  |  |  |  | 9.54 ± 0.22 µM | > 100 µM |  |  |
| CCc1c2c(nc3ccc(O)cc13)-c1cc3c(c(=O)n1C2)COC(=O)[C@]3(O)CC [SN38] |  |  |  |  |  |  |  |  |  |  |  | 4.73 ± 0.14 µM | 40.98 ± 0.3 µM |
| O=c1c2ccccc2cc2n1Cc1c-2nc2cccc(Cl)c2c1CNCCCn1ccnc1 [Compound 6] | did not have any inhibitory effect; also recorded: do not have LTopIB inhibitory activity | 3.33 ± 0.17 µM | 3.7 | 0.19 ± 0.03 µM | 0.7 ± 0.12 µM |  |  |  |  |  |  |  |  |
| O=c1c2ccccc2cc2n1Cc1c-2nc2ccccc2c1CCCNCCO [Compound 4] | partial inhibition | 4.99 ± 0.31 µM | 5.0 | 0.99 ± 1.17 µM | 4.96 ± 0.52 µM |  | 0.01 µM |  |  |  |  |  |  |
| CN(C)CCCc1c2c(nc3ccccc13)-c1cc3ccccc3c(=O)n1C2 [Compound 1] | partial inhibition; also recorded: inhibit the enzyme at very low concentrations | 6.27 ± 0.7 µM | 9.8 | 0.45 ± 0.14 µM | 4.41 ± 1.07 µM |  | 0.01 µM |  |  |  |  |  |  |
